PubChem BioAssay AID1963840 (Molecular Pharmacology Branch, DTP, NCI, 2024)

Test system: 695427-040-R-J1-PDC complex spheroid viability
Test: Anticancer human tumor 695427-040-R-J1-PDC patient-derived colon adenocarcinoma cell line growth inhibition [POLQ]
Settings: for IC50: curve of first compound; for viability, T/C: stronger effect = lower value
Protocol: Multicellular complex tumor spheroid response to Polymerase (POL) inhibitors (novobiocin, ART-558, RP6685) in combination with a variety of drugs and investigational agents in selected tumor cell lines
The POL inhibitors (novobiocin, ART-558, and RP6685) were evaluated both individually and in combination with standard of care and investigational anticancer small molecules within a complex spheroid model of solid tumors. . Complex spheroids include a stromal component modeled by human endothelial cells (HUVEC) and fibroblasts modeled by human mesenchymal stem cells (MSCs). The concentration ranges selected for each drug and investigational agent were based upon clinically achievable concentrations if the clinical Cmax of the agent was known.
Compounds. The drugs and investigational agents: novobiocin (NSC847541), ART-558 (NSC835418), RP-6685 (NSC848927), peposertib (NSC802822), ceralasertib (NSC780249), elimusertib (NSC800525), camonsertib (NSC841442), AZD-1390 (NSC803789), olaparib (NSC753686), talazoparib (NSC767125), rucaparib (NSC756644), sotorasib (NSC818433), MRTX-1133 (NSC836407), SN-38 (NSC673596), topotecan (NSC609699), epotoside (NSC141540), doxorubicin (NSC123127), gemcitabine (NSC613327), 5-fluorouracil (NSC19893), paclitaxel (NSC125973), vemurafenib (NSC761431), MSA-2 (NSC828583), SN-011 (NSC837082), adavosertib (NSC754352), prexasertib (NSC758257), carboplatin (NSC241240) and oxaliplatin (NSC266046), were obtained from the National Cancer Institute (NCI) Developmental Therapeutics Program Chemical Repository (21). The FDA-approved anticancer drug set is available from the Developmental Therapeutics Program at https://dtp.cancer.gov/organization/dscb/obtaining/. […] The stock solutions were prepared in dimethyl sulfoxide (DMSO, Sigma-Aldrich, St. Louis, MO, cat. D2650), except for the platinum compounds which were prepared in saline (Quality Biological, Gaithersburg, MD, cat. 114-055-101), at 800-fold the tested concentration and stored at -70 degrees C prior to their use. All drugs and investigational agents were tested over a range starting from a high concentration at or near the clinical Cmax and decreasing in half-log increments. If the clinical Cmax for an agent had not been determined, the highest concentration tested was 10 microM, except for SN-38, which was tested at a high concentration of 1 microM.
Cell Culture. All cells were maintained in an incubator at 37 degrees C and 5% CO2 with 95% humidity. The PDC lines were cultured according to standard operating procedures established by the NCI PDMR (https://pdmr.cancer.gov). Table 3 of the manuscript, lists the cell lines along with the number of the three cell types plated to form the mct-spheroids and media for tumor cell growth. After thawing, all PDC lines, except 997537-175-T-J1-PDC and 415267-285-R-J2-PDC, were cultured in Matrigel-coated flasks prepared with a working solution of 1X Ham's F-12 nutrient mix, without supplementation (Thermo Fisher Scientific, cat. 11765054), 100 U/mL penicillin-streptomycin (Thermo Fisher Scientific, cat. 15140122), and 2.5% Matrigel (Corning Inc., Corning, NY, cat. 354248) for the first three passages. The two PDC lines 997537-175-T-J1-PDC and 415267-285-R-J2-PDC were cultured on uncoated flasks. The 857933-349-R-J2-PDC line was cultured in 6C/Colon 1B media containing advanced DMEM/F-12 (Thermo Fisher Scientific, cat. 12634028), 10 mM HEPES (Thermo Fisher Scientific, cat. 15630080), 1X GlutaMAX supplement (Thermo Fisher Scientific, cat. 35050061), 0.1 mg/mL primocin (InvivoGen, San Diego, CA, cat. ant-pm-2), 10% defined fetal bovine serum, heat inactivated (HyClone Laboratories Inc., Logan, UT, cat. SH30070.03HI), 50% L-WRN conditioned media (ATCC, cat. CRL-3276), 1.25 mM N-Acetyl-L-cysteine (Sigma-Aldrich, cat. A9165), 10 mM nicotinamide (Sigma-Aldrich, cat. N0636), 1X B-27 supplement (Thermo Fisher Scientific, cat. 17504044), 1X N-2 supplement (Thermo Fisher Scientific, cat. […]
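Also: spheroids exposed to compounds for seven days.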
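For viability, T/C in this document: 100% = DMSO vehicle control viability.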

In the case of CC(=O)O[C@H]1C(=O)[C@@]2(C)[C@H]([C@H](OC(=O)c3ccccc3)[C@]3(O)C[C@H](OC(=O)[C@H](O)[C@@H](NC(=O)c4ccccc4)c4ccccc4)C(C)=C1C3(C)C)[C@]1(OC(C)=O)CO[C@@H]1C[C@@H]2O + COC1C(OC(N)=O)C(O)C(Oc2ccc3c(O)c(NC(=O)c4ccc(O)c(CC=C(C)C)c4)c(=O)oc3c2C)OC1(C)C, the IC50 (second compound 0.0316 µM) is reported as over 3 µM, the IC50 (second compound 0.1 µM) is reported as over 3 µM and the IC50 (second compound 0.316 µM) is reported as over 3 µM. The IC50 (second compound 1 µM) was over 3 µM, the IC50 (second compound 3.16 µM) was over 3 µM and the IC50 (second compound 10 µM) was over 3 µM. It also gave a viability, T/C (second compound 0.0316 µM, first compound 0.00949 µM) of 96.4%, a viability, T/C (second compound 0.0316 µM, first compound 0.03 µM) of 85.9% and a viability, T/C (second compound 0.0316 µM, first compound 0.0949 µM) of 84.7%. It also gave a viability, T/C (second compound 0.0316 µM, first compound 0.3 µM) of 89.5%, a viability, T/C (second compound 0.0316 µM, first compound 0.949 µM) of 84.6% and a viability, T/C (second compound 0.0316 µM, first compound 3 µM) of 72.2%. The viability, T/C (second compound 0.1 µM, first compound 0.00949 µM) was 96.4%, the viability, T/C (second compound 0.1 µM, first compound 0.03 µM) was 98.1% and the viability, T/C (second compound 0.1 µM, first compound 0.0949 µM) was 94.1%. It also gave a viability, T/C (second compound 0.1 µM, first compound 0.3 µM) of 85.9%, a viability, T/C (second compound 0.1 µM, first compound 0.949 µM) of 89.8% and a viability, T/C (second compound 0.1 µM, first compound 3 µM) of 72.4%. It also gave a viability, T/C (second compound 0.316 µM, first compound 0.00949 µM) of 103%, a viability, T/C (second compound 0.316 µM, first compound 0.03 µM) of 91.4% and a viability, T/C (second compound 0.316 µM, first compound 0.0949 µM) of 91%. It also gave a viability, T/C (second compound 0.316 µM, first compound 0.3 µM) of 92.4%, a viability, T/C (second compound 0.316 µM, first compound 0.949 µM) of 88.1% and a viability, T/C (second compound 0.316 µM, first compound 3 µM) of 77.9%. For the same compound, the viability, T/C (second compound 1 µM, first compound 0.00949 µM) was 99.2%, the viability, T/C (second compound 1 µM, first compound 0.03 µM) was 93.3% and the viability, T/C (second compound 1 µM, first compound 0.0949 µM) was 86.1%. For the same compound, the viability, T/C (second compound 1 µM, first compound 0.3 µM) was 90.5%, the viability, T/C (second compound 1 µM, first compound 0.949 µM) was 88.5% and the viability, T/C (second compound 1 µM, first compound 3 µM) was 78.6%. For the same compound, the viability, T/C (second compound 3.16 µM, first compound 0.00949 µM) was 92.5%, the viability, T/C (second compound 3.16 µM, first compound 0.03 µM) was 97.9% and the viability, T/C (second compound 3.16 µM, first compound 0.0949 µM) was 86.7%. For the same compound, the viability, T/C (second compound 3.16 µM, first compound 0.3 µM) was 87.3%, the viability, T/C (second compound 3.16 µM, first compound 0.949 µM) was 87.6% and the viability, T/C (second compound 3.16 µM, first compound 3 µM) was 76.3%. For the same compound, the viability, T/C (second compound 10 µM, first compound 0.00949 µM) was 93.7%, the viability, T/C (second compound 10 µM, first compound 0.03 µM) was 97.2% and the viability, T/C (second compound 10 µM, first compound 0.0949 µM) was 91.7%. The viability, T/C (second compound 10 µM, first compound 0.3 µM) was 88.5%, the viability, T/C (second compound 10 µM, first compound 0.949 µM) was 87.6% and the viability, T/C (second compound 10 µM, first compound 3 µM) was 77%.
O=c1[nH]cc(F)c(=O)[nH]1 + COC1C(OC(N)=O)C(O)C(Oc2ccc3c(O)c(NC(=O)c4ccc(O)c(CC=C(C)C)c4)c(=O)oc3c2C)OC1(C)C showed an IC50 (second compound 0.0316 µM) of over 10 µM, an IC50 (second compound 0.1 µM) of over 10 µM and an IC50 (second compound 0.316 µM) of over 10 µM. The IC50 (second compound 1 µM) was over 10 µM, the IC50 (second compound 3.16 µM) was over 10 µM and the IC50 (second compound 10 µM) was over 10 µM. It also gave a viability, T/C (second compound 0.0316 µM, first compound 0.0316 µM) of 95.8%, a viability, T/C (second compound 0.0316 µM, first compound 0.1 µM) of 101% and a viability, T/C (second compound 0.0316 µM, first compound 0.316 µM) of 111%. For the same compound, the viability, T/C (second compound 0.0316 µM, first compound 1 µM) was 103%, the viability, T/C (second compound 0.0316 µM, first compound 3.16 µM) was 103% and the viability, T/C (second compound 0.0316 µM, first compound 10 µM) was 107%. It also gave a viability, T/C (second compound 0.1 µM, first compound 0.0316 µM) of 106%, a viability, T/C (second compound 0.1 µM, first compound 0.1 µM) of 107% and a viability, T/C (second compound 0.1 µM, first compound 0.316 µM) of 108%. For the same compound, the viability, T/C (second compound 0.1 µM, first compound 1 µM) was 106%, the viability, T/C (second compound 0.1 µM, first compound 3.16 µM) was 112% and the viability, T/C (second compound 0.1 µM, first compound 10 µM) was 97.2%. For the same compound, the viability, T/C (second compound 0.316 µM, first compound 0.0316 µM) was 114%, the viability, T/C (second compound 0.316 µM, first compound 0.1 µM) was 106% and the viability, T/C (second compound 0.316 µM, first compound 0.316 µM) was 112%. For the same compound, the viability, T/C (second compound 0.316 µM, first compound 1 µM) was 99.5%, the viability, T/C (second compound 0.316 µM, first compound 3.16 µM) was 109% and the viability, T/C (second compound 0.316 µM, first compound 10 µM) was 96.4%. For the same compound, the viability, T/C (second compound 1 µM, first compound 0.0316 µM) was 104%, the viability, T/C (second compound 1 µM, first compound 0.1 µM) was 101% and the viability, T/C (second compound 1 µM, first compound 0.316 µM) was 108%. For the same compound, the viability, T/C (second compound 1 µM, first compound 1 µM) was 101%, the viability, T/C (second compound 1 µM, first compound 3.16 µM) was 97.6% and the viability, T/C (second compound 1 µM, first compound 10 µM) was 96.8%. The viability, T/C (second compound 3.16 µM, first compound 0.0316 µM) was 109%, the viability, T/C (second compound 3.16 µM, first compound 0.1 µM) was 97.7% and the viability, T/C (second compound 3.16 µM, first compound 0.316 µM) was 99.2%. For the same compound, the viability, T/C (second compound 3.16 µM, first compound 1 µM) was 105%, the viability, T/C (second compound 3.16 µM, first compound 3.16 µM) was 106% and the viability, T/C (second compound 3.16 µM, first compound 10 µM) was 97.9%. For the same compound, the viability, T/C (second compound 10 µM, first compound 0.0316 µM) was 99.6%, the viability, T/C (second compound 10 µM, first compound 0.1 µM) was 97.1% and the viability, T/C (second compound 10 µM, first compound 0.316 µM) was 105%. The viability, T/C (second compound 10 µM, first compound 1 µM) was 101%, the viability, T/C (second compound 10 µM, first compound 3.16 µM) was 98.3% and the viability, T/C (second compound 10 µM, first compound 10 µM) was 101%.
